Laboratory results as given in US20190048016A1, “SUBSTITUTED BRIDGED UREA ANALOGS AS SIRTUIN MODULATORS” (GlaxoSmithKline Intellectual Property(No.2)Limited, priority 2014, published 2019).
Counter-ions that a name gives are not always drawn.

Molecular target: T1, SIRT1 (Homo sapiens, UniProt Q96EB6)
T1 sequence (Q96EB6 1-747): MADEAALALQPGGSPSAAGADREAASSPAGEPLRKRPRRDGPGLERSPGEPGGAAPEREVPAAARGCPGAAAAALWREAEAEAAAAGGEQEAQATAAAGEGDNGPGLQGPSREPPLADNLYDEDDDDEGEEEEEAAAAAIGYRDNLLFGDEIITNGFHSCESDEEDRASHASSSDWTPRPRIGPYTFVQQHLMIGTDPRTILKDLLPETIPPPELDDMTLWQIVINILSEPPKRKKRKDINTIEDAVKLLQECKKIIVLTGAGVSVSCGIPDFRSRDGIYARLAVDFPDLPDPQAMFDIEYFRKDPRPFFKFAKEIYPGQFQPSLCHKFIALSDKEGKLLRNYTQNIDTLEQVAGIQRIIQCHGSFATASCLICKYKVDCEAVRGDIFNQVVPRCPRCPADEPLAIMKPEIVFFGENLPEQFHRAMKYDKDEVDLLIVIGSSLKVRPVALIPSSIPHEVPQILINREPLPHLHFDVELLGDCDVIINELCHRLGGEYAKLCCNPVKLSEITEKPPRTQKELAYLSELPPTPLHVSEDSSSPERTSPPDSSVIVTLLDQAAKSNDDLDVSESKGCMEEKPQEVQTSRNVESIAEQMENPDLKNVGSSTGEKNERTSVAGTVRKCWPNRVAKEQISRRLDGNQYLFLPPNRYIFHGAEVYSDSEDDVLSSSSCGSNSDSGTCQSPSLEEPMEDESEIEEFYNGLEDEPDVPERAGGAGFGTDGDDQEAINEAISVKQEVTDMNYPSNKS
Experiment: Trp mass spectrometry assay of SIRT1 activation (deacetylation of Ac-R-H-K-K(Ac)-W-NH2 peptide, OAADPR formation)
Format: biochemical
Conditions: Trp peptide 0.5 μM, 120 μM βNAD+, 10 nM SIRT1, 25 min, 25° C.; for Emax: 25 min, read-out: TRP MAX RESP (percent maximum fold activation relative to control = 100%)
Description: Mass spectrometry based assays were used to identify modulators of SIRT1 activity. The TAMRA based assay utilized a peptide having 20 amino acid residues as follows: Ac-EE-K(biotin)-[…](Ac)NleSTEG-K(5TMR)-EE-NH2 (SEQ ID NO: 1), wherein K(Ac) is an acetylated lysine residue and Nle is a norleucine. The peptide was labeled with the fluorophore 5TMR (excitation 540 nm/emission 580 nm) at the C-terminus. The sequence of the peptide substrate was based on p53 with several modifications. In addition, the methionine residue naturally present in the sequence was replaced with the norleucine because the methionine may be susceptible to oxidation during synthesis and purification. The Trp based assay utilized a peptide having an amino acid residues as follows: Ac-R-H-K-K(Ac)-W-NH2 (SEQ ID NO: 2).
The Trp mass spectrometry assay was conducted as follows. 0.5 μM peptide substrate and 120 μM βNAD^+ were incubated with 10 nM SIRT1 for 25 minutes at 25° C. in a reaction buffer (50 mM HEPES pH 7.5, […], 1 mM DTT, 0.05% BSA). The SIRT1 protein was obtained by cloning the SirT1 gene into a T7-promoter containing vector, which was then expressed in BL21(DE3) bacterial cells and purified as described in further detail below. Test compound was added at varying concentrations to this reaction mixture and the resulting reactions were monitored. After the 25 minute incubation with SIRT1, 10 μL of 10% formic acid was added to stop the reaction. The resulting reactions were sealed and frozen for later mass spec analysis. The relative SIRT1 activity was then determined by measuring the amount of O-acetyl-ADP-ribose (OAADPR) formed (or, alternatively, the amount of deacetylated Trp peptide generated) by the NAD-dependent sirtuin deacetylation reaction in the presence of varying concentrations of the test compound versus control reactions lacking the test compound. The degree to which the test agent activated deacetylation by SIRT1 was expressed as EC1.5 (i.e., the concentration of compound required to increase SIRT1 activity by 50% over the control lacking test compound), and Percent Maximum Activation (i.e., the maximum activity relative to control (100%) obtained for the test compound).
A control for inhibition of sirtuin activity was conducted by adding 1 μL of 500 mM nicotinamide as a negative control at the start of the reaction (e.g., permits determination of maximum sirtuin inhibition). A control for activation of sirtuin activity was conducted using 10 nM of sirtuin protein, with 1 μL of DMSO in place of compound, to determine the amount of deacetylation of the substrate at a given time point within the linear range of the assay. This time point was the same as that used for test compounds and, within the linear range, the endpoint represents a change in velocity.
For the above assay, SIRT1 protein was expressed and purified as follows. The SirT1 gene was cloned into a T7-promoter containing vector and transformed into BL21(DE3). The protein was expressed by induction with 1 mM IPTG as an N-terminal His-tag fusion protein at 18° C. overnight and harvested at 30,000×g. Cells were lysed with lysozyme in lysis buffer (50 mM Tris-HCl, 2 mM Tris[2-carboxyethyl] phosphine (TCEP), 10 μM ZnCl2, 200 mM NaCl) and further treated with sonication for 10 min for complete lysis. The protein was purified over a Ni-NTA column (Amersham) and fractions containing pure protein were pooled, concentrated and run over a sizing column (Sephadex S200 26/60 global). The peak containing soluble protein was collected and run on an Ion-exchange column (MonoQ). Gradient elution (200 mM-500 mM NaCl) yielded pure protein. This protein was concentrated and dialyzed against dialysis buffer (20 mM Tris-HCl, 2 mM TCEP) overnight. The protein was aliquoted and frozen at −80° C. until further use.
Sirtuin-modulating compounds of Formula (I) that activated SIRT1 were identified using the assay described above and are shown below in Table 1. […]

SMILES	Emax	TRP Activity (EC1.5, concentration of compound required to increase SIRT1 activity by 50% over control)	TRP Activity (EC1.5, concentration of compound required to increase SIRT1 activity by 50% over control) (hydrochloride)
Cc1cc(-c2nc3c(cc2C)N2CCC[C@@H](C2)N3C(=O)Nc2cccnc2)ccn1 [Example 68, (9S)-3-methyl-2-(2-methylpyridin-4-yl)-N-(pyridin-3-yl)-8,9-dihydro-6H-5,9-methanopyrido[2,3-b][1,4]diazocine-10(7H)-carboxamide]	≥ 150%	A (EC1.5<1 μM)	
O=C(NC1CC1)c1ccc2c(n1)N(C(=O)Nc1ccccn1)[C@H]1CCCN2C1 [Example 36, (9S)-N2-cyclopropyl-N10-(pyridin-2-yl)-8,9-dihydro-6H-5,9-methanopyrido[2,3-b][1,4]diazocine-2,10(7H)-dicarboxamide]	≥ 150%	A (EC1.5<1 μM)	
Cc1cc(-c2nc3c(cc2Cl)N2CCC[C@@H](C2)N3C(=O)Nc2cccnc2)ccn1 [Example 66, (9S)-3-chloro-2-(2-methylpyridin-4-yl)-N-(pyridin-3-yl)-8,9-dihydro-6H-5,9-methanopyrido[2,3-b][1,4]diazocine-10(7H)-carboxamide]	≥ 150%		
O=C(Nc1cncc(OCC(O)CO)n1)N1c2nc(-c3cccc(C(F)(F)F)c3)c(Cl)cc2N2CCC[C@H]1C2 (stereo in doubt) [Example 67, (9S)-3-chloro-N-(6-((R)-2,3-dihydroxypropoxy)pyrazin-2-yl)-2-(3-(trifluoromethyl)phenyl)-8,9-dihydro-6H-5,9-methanopyrido[2,3-b][1,4]diazocine-10(7H)-carboxamide]	≥ 150%	A (EC1.5<1 μM)	
Cc1cc2c(nc1-c1cccc(C(F)(F)F)c1)N(C(=O)Nc1cc(OC[C@H](O)CO)ccn1)[C@H]1CCCN2C1 [Example 91, (9S)-N-(4-((R)-2,3-dihydroxypropoxy)pyridin-2-yl)-3-methyl-2-(3-(trifluoromethyl)phenyl)-8,9-dihydro-6H-5,9-methanopyrido[2,3-b][1,4]diazocine-10(7H)-carboxamide]	≥ 150%	A (EC1.5<1 μM)	
O=C(Nc1ncccn1)N1c2nc(N3CCCC(C(F)(F)F)C3)ccc2N2CCC[C@H]1C2 (single isomer, unassigned) [Example 18]	≥ 150%	A (EC1.5<1 μM)	
O=C(Nc1cnc(OC[C@H](O)CO)nc1)N1c2nc(-c3cccc(C(F)(F)F)c3)c(Cl)cc2N2CCC[C@H]1C2 [Example 69, (9S)-3-chloro-N-(2-((R)-2,3-dihydroxypropoxy)pyrimidin-5-yl)-2-(3-(trifluoromethyl)phenyl)-8,9-dihydro-6H-5,9-methanopyrido[2,3-b][1,4]diazocine-10(7H)-carboxamide]	≥ 150%	A (EC1.5<1 μM)	

More lines, now with the values ahead:

Emax	TRP Activity (EC1.5, concentration of compound required to increase SIRT1 activity by 50% over control)	TRP Activity (EC1.5, concentration of compound required to increase SIRT1 activity by 50% over control) (hydrochloride)	SMILES
≥ 150%	B (EC1.5 1-25 μM)		O=C(Nc1ccccn1)N1c2nc(N3CCC[C@H]3C(F)(F)F)ccc2N2CCC[C@H]1C2 [Example 1, (9S)-N-(pyridin-2-yl)-2-((S)-2-(trifluoromethyl)pyrrolidin-1-yl)-8,9-dihydro-6H-5,9-methanopyrido[2,3-b][1,4]diazocine-10(7H)-carboxamide]
≥ 150%	A (EC1.5<1 μM)		O=C(Nc1cnc(OC[C@@H](O)CO)nc1)N1c2nc(-c3cccc(C(F)(F)F)c3)c(Cl)cc2N2CCC[C@H]1C2 [Example 72, (9S)-3-chloro-N-(2-((S)-2,3-dihydroxypropoxy)pyrimidin-5-yl)-2-(3-(trifluoromethyl)phenyl)-8,9-dihydro-6H-5,9-methanopyrido[2,3-b][1,4]diazocine-10(7H)-carboxamide]
		A (EC1.5<1 μM)	O=C(Nc1ccccn1)N1c2nc(N3CCC(C(F)(F)F)C3)ccc2N2CCC[C@H]1C2 (single isomer, unassigned) [Example 31, hydrochloride]
≥ 150%	A (EC1.5<1 μM)		O=C(Nc1cnccn1)N1c2nc(-c3ccnc(C(F)(F)F)c3)ccc2N2CCC[C@H]1C2 [Example 17, (9S)-N-(pyrazin-2-yl)-2-(2-(trifluoromethyl)pyridin-4-yl)-8,9-dihydro-6H-5,9-methanopyrido[2,3-b][1,4]diazocine-10(7H)-carboxamide]
≥ 150%	A (EC1.5<1 μM)		O=C(NCC(F)(F)F)c1ccc2c(n1)N(C(=O)Nc1ccccn1)[C@H]1CCCN2C1 [Example 37, (9S)-N10-(pyridin-2-yl)-N2-(2,2,2-trifluoroethyl)-8,9-dihydro-6H-5,9-methanopyrido[2,3-b][1,4]diazocine-2,10(7H)-dicarboxamide]
≥ 150%	A (EC1.5<1 μM)		O=C(Nc1ccc(OC[C@@H](O)CO)nc1)N1c2nc(-c3cccc(C(F)(F)F)c3)c(Cl)cc2N2CCC[C@H]1C2 [Example 84, (9S)-3-chloro-N-(6-((S)-2,3-dihydroxypropoxy)pyridin-3-yl)-2-(3-(trifluoromethyl)phenyl)-8,9-dihydro-6H-5,9-methanopyrido[2,3-b][1,4]diazocine-10(7H)-carboxamide]
≥ 150%	A (EC1.5<1 μM)		O=C(Nc1cnccn1)N1c2nc(N3CCC[C@H](C(F)(F)F)C3)ccc2N2CCC[C@H]1C2 (single isomer, unassigned) [Example 27]
≥ 150%	A (EC1.5<1 μM)		O=C(Nc1ccnc(OC[C@@H](O)CO)n1)N1c2nc(-c3cccc(C(F)(F)F)c3)c(Cl)cc2N2CCC[C@H]1C2 [Example 81, (9S)-3-chloro-N-(2-((S)-2,3-dihydroxypropoxy)pyrimidin-4-yl)-2-(3-(trifluoromethyl)phenyl)-8,9-dihydro-6H-5,9-methanopyrido[2,3-b][1,4]diazocine-10(7H)-carboxamide]
